In ChEMBL document CHEMBL1143249, “N-alkyl-4-piperidinyl-2,3-diarylpyrrole derivatives with heterocyclic substitutions as potent and broad spectrum anticoccidial agents” (Bioorg Med Chem Lett, 2008):
Calls of active or inactive are those of the source. The rule behind the calls is not given here.

Experiments:
[1] = system: Eimeria acervulina; assay: Anticoccidial activity against Eimeria acervulina in chick assessed as reduction in oocyst at 100 ppm, po after 5 days; type: functional
[2] = target: cGMP-dependent protein kinase (Eimeria tenella, UniProt Q8MMZ8); assay: Inhibition of Eimeria tenella cGMP-dependent protein kinase
[3] = system: Eimeria tenella; assay: Anticoccidial activity against Eimeria tenella in chick assessed as reduction in oocyst at 100 ppm, po after 6 days; type: functional
[4] = system: Eimeria acervulina; assay: Anticoccidial activity against Eimeria acervulina in chick assessed as reduction in oocyst at 50 ppm, po after 5 days; type: functional, organism-based
[5] = system: Eimeria tenella; assay: Anticoccidial activity against Eimeria tenella in chick assessed as reduction in oocyst at 50 ppm, po after 6 days; type: functional, organism-based

Chain of cGMP-dependent protein kinase (Q8MMZ8 whole entry): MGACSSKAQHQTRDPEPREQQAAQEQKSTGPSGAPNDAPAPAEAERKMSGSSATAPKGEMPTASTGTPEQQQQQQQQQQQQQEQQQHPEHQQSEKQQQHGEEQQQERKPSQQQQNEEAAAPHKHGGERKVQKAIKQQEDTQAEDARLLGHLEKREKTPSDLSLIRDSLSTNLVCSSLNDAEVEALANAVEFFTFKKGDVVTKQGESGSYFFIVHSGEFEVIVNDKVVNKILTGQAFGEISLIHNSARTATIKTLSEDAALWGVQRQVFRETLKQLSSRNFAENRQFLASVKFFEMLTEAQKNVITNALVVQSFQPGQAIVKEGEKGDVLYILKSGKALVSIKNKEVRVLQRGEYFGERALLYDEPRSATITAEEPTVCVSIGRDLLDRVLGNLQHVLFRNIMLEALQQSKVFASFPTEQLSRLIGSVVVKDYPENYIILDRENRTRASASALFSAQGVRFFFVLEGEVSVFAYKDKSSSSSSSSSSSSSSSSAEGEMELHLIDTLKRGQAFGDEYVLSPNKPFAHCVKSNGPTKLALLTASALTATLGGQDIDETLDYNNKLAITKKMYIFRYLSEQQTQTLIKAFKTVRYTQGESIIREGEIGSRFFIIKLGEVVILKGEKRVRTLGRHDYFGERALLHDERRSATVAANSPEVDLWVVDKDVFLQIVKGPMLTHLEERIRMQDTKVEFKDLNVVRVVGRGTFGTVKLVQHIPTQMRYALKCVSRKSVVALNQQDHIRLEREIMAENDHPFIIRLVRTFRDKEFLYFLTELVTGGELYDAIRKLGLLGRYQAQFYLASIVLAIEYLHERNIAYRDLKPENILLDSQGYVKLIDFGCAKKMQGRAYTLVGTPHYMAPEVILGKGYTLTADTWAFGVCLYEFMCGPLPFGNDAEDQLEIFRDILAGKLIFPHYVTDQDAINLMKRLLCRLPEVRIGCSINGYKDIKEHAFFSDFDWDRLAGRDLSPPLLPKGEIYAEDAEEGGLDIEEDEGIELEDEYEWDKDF

| SMILES | IC50 [2] | Activity [1] | Activity [3] | Activity [4] | Activity [5] |
| --- | --- | --- | --- | --- | --- |
| CS(=O)(=O)N1CCN(S(C)(=O)=O)C(CN2CCC(c3cc(-c4ccncc4)c(-c4ccc(F)cc4)[nH]3)CC2)C1 (stereo unspecified) | 1.41 nM | inactive | inactive |  |  |
| CC(=O)N1CCN(C(C)=O)C(CN2CCC(c3cc(-c4ccncc4)c(-c4ccc(F)cc4)[nH]3)CC2)C1 (stereo unspecified) | 2.2 nM | inactive | inactive |  |  |
| OC[C@@H]1CCN1CCN1CCC(c2cc(-c3ccncc3)c(-c3ccc(F)cc3)[nH]2)CC1 | 1.7 nM | 80% | 80% |  |  |
| COC(=O)N1CCOC(C(=O)N2CCC(c3cc(-c4ccncc4)c(-c4ccc(F)cc4)[nH]3)CC2)C1 (stereo unspecified) | 4.7 nM | 50% | 50% |  |  |
| COC(=O)N1CCOC(CN2CCC(c3cc(-c4ccncc4)c(-c4ccc(F)cc4)[nH]3)CC2)C1 (stereo unspecified) | 1.03 nM | 50% | 80% |  |  |
| CN1C[C@H](O)C[C@H]1CN1CCC(c2cc(-c3ccncc3)c(-c3ccc(F)cc3)[nH]2)CC1 | 0.34 nM | 50% | 80% |  |  |
| O=C(CN1CCC(c2cc(-c3ccncc3)c(-c3ccc(F)cc3)[nH]2)CC1)N1CCC1 | 1.01 nM | 80% | 80% |  |  |
| CC(CN1CCC1)N1CCC(c2cc(-c3ccncc3)c(-c3ccc(F)cc3)[nH]2)CC1 (stereo unspecified) | 0.4 nM | 80% | 80% |  |  |
| CN1CCOC(CN2CCC(c3cc(-c4ccncc4)c(-c4ccc(F)cc4)[nH]3)CC2)C1 (stereo unspecified) | 0.67 nM | 80% | 80% | Active | Active |
| CN1CCN(C)C(CN2CCC(c3cc(-c4ccncc4)c(-c4ccc(F)cc4)[nH]3)CC2)C1 (stereo unspecified) | 1.08 nM | 50% | 50% |  |  |
| CCN1C[C@H](O)C[C@H]1CN1CCC(c2cc(-c3ccncc3)c(-c3ccc(F)cc3)[nH]2)CC1 | 0.36 nM | 50% | 80% |  |  |
| CC(=O)N1C[C@H](O)C[C@H]1CN1CCC(c2cc(-c3ccncc3)c(-c3ccc(F)cc3)[nH]2)CC1 | 2.2 nM | 50% | 80% |  |  |

The next molecules have a lower IC50 [2] than those just listed; values first:

| IC50 [2] | SMILES | Activity [1] | Activity [3] | Activity [4] | Activity [5] |
| --- | --- | --- | --- | --- | --- |
| 0.28 nM | CN1CC[C@H]1CN1CCC(c2cc(-c3ccncc3)c(-c3ccc(F)cc3)[nH]2)CC1 | 80% | 80% |  |  |
| 0.07 nM | Fc1ccc(-c2[nH]c(C3CCN(CC4CNCCN4)CC3)cc2-c2ccncc2)cc1 (stereo unspecified) | 50% | 80% |  |  |
| 0.16 nM | O[C@H]1CN[C@H](CN2CCC(c3cc(-c4ccncc4)c(-c4ccc(F)cc4)[nH]3)CC2)C1 | 50% | 80% |  |  |
| 0.17 nM | Fc1ccc(-c2[nH]c(C3CCN(CC4CNCCO4)CC3)cc2-c2ccncc2)cc1 (stereo unspecified) | 50% | 80% |  |  |
| 0.08 nM | Fc1ccc(-c2[nH]c(C3CCN(CCN4CCC4)CC3)cc2-c2ccncc2)cc1 | 80% | 80% |  |  |
| 0.27 nM | O=C(C1CNCCO1)N1CCC(c2cc(-c3ccncc3)c(-c3ccc(F)cc3)[nH]2)CC1 (stereo unspecified) | 50% | 80% |  |  |
